{"source": "patent US10968203B2", "about": "“Pyrimidinyl-pyridyloxy-naphthyl compounds and methods of treating IRE1-related diseases and disorders” (Genentech, Inc., priority 2017, dated 2021)", "note": "Structures can show the parent of a compound that is named as a salt.", "data": [{"system": "XBP1s-luc 293 LUC", "assay": "cellular PD assay, XBP1s-LUC reporter (Example 903)", "assay_type": "cell-based", "conditions": "Table 1; read-out: XBP1s-luc 293 LUC (IC50)", "in_short": "(§1)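 A luciferase fusion, in frame and expressed only when the XBP1 transcript is spliced, served as the readout of cellular IRE1α activity in an XBP1-Luc reporter line.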", "units": {"IC50": "µM"}, "values": [{"smiles": "Cc1ccc2c(NCc3ccccn3)cccc2c1Oc1ncccc1-c1ccnc(N[C@H]2CCCNC2)n1", "note": "[Example 261, (S)-4-(2-((2-Methyl-5-((pyridin-2-ylmethyl)amino)naphthalen-1-yl)oxy)pyridin-3-yl)-N-(piperidin-3-yl)pyrimidin-2-amine]", "IC50": 0.22}, {"smiles": "Cc1ccc2c(NC(=O)C(C)(C)C#N)cccc2c1Oc1ncccc1-c1ccnc(N[C@H]2CCCNC2)n1", "note": "[Example 363, (S)-2-Cyano-2-methyl-N-(6-methyl-5-((3-(2-(piperidin-3-ylamino)pyrimidin-4-yl)pyridin-2-yl)oxy)naphthalen-1-yl)propanamide]", "IC50": 0.408}, {"smiles": "Cc1ccc2c(NS(=O)(=O)N(C)C)c(F)ccc2c1Oc1ncccc1-c1ccnc(N[C@H]2CCCNC2)n1", "note": "[Example 324, 4-[2-[[5-(Dimethylsulfamoylamino)-6-fluoro-2-methyl-1-naphthyl]oxy]-3-pyridyl]-2-[[(3S)-3-piperidyl]amino]pyrimidine]", "IC50": 0.0455}, {"smiles": "Cc1ccc2c(NS(=O)(=O)CC(C)C)c(F)ccc2c1Oc1ncccc1-c1ccnc(N[C@@H]2CNC[C@H](C)C2)n1", "note": "[Example 369, N-(2-Fluoro-6-methyl-5-((3-(2-(((3S,5R)-5-methylpiperidin-3-yl)amino)pyrimidin-4-yl)pyridin-2-yl)oxy)naphthalen-1-yl)-2-methylpropane-1-sulfonamide]", "IC50": 0.0194}, {"smiles": "Cc1ccc2c(NS(=O)(=O)CCC(F)(F)F)c(F)ccc2c1Oc1ncccc1-c1ccnc(N[C@H]2CCCNC2)n1", "note": "[Example 276, (S)-3,3,3-Trifluoro-N-(2-fluoro-6-methyl-5-((3-(2-(piperidin-3-ylamino)pyrimidin-4-yl)pyridin-2-yl)oxy)naphthalen-1-yl)propane-1-sulfonamide hydrochloride]", "IC50": 0.0441}, {"smiles": "Cc1ccc2c(NC(=O)C3CCCCC3)cccc2c1Oc1ncccc1-c1ccnc(N[C@H]2CCCNC2)n1", "note": "[Example 190, (S)—N-(6-Methyl-5-((3-(2-(piperidin-3-ylamino)pyrimidin-4-yl)pyridin-2-yl)oxy)naphthalen-1-yl)cyclohexanecarboxamide]", "IC50": 0.273}, {"smiles": "Cc1ccc2c(NS(=O)(=O)CBr)cccc2c1Oc1ncccc1-c1ccnc(N[C@H]2CCCNC2)n1", "note": "[Example 172, (S)-1-Bromo-N-(6-methyl-5-(3-(2-(piperidin-3-ylamino)pyrimidin-4-yl)pyridin-2-yloxy)naphthalen-1-yl)methanesulfonamide]", "IC50": 0.393}, {"smiles": "Cc1ccc2c(NS(=O)(=O)CC(C)(C)C)cccc2c1Oc1ncccc1-c1ccnc(N[C@H]2CCCNC2)n1", "note": "[Example 139, (S)-2,2-Dimethyl-N-(6-methyl-5-((3-(2-(piperidin-3-ylamino)pyrimidin-4-yl)pyridin-2-yl)oxy)naphthalen-1-yl)propane-1-sulfonamide]", "IC50": 0.241}, {"smiles": "Cc1ccc2c(NC[C@@H](O)C(F)(F)F)cccc2c1Oc1ncccc1-c1ccnc(N[C@H]2CCCNC2)n1", "note": "[Example 298, (R)-1,1,1-Trifluoro-3-((6-methyl-5-((3-(2-((S)-piperidin-3-ylamino)pyrimidin-4-yl)pyridin-2-yl)oxy)naphthalen-1-yl)amino)propan-2-ol]", "IC50": 0.0672}, {"smiles": "Cc1ccc2c(NC(=O)[C@@H]3CC34CC4)c(F)ccc2c1Oc1ncccc1-c1ccnc(N[C@H]2CCCNC2)n1", "note": "(single isomer, unassigned) [Example 380]", "IC50": 0.0566}, {"smiles": "Cc1ccc2c(NCC[C@@H](C)O)cccc2c1Oc1ncccc1-c1ccnc(N[C@H]2CCCNC2)n1", "note": "(single isomer, unassigned) [Example 201]", "IC50": 0.133}, {"smiles": "Cc1ccc2c(N3CCCS3(=O)=O)cccc2c1Oc1ncccc1-c1ccnc(N[C@H]2CCCNC2)n1", "note": "[Example 194, (S)-2-(6-Methyl-5-((3-(2-(piperidin-3-ylamino)pyrimidin-4-yl)pyridin-2-yl)oxy)naphthalen-1-yl)isothiazolidine 1,1-dioxide]", "IC50": 0.313}, {"smiles": "Cc1cnn(-c2cccc3c(Oc4ncccc4-c4ccnc(N[C@H]5CCCNC5)n4)c(C)ccc23)c1", "note": "[Example 207, (S)-4-(2-((2-Methyl-5-(4-methyl-1H-pyrazol-1-yl)naphthalen-1-yl)oxy)pyridin-3-yl)-N-(piperidin-3-yl)pyrimidin-2-amine]", "IC50": 0.251}, {"smiles": "Cc1ccc2c(NC(=O)CCC(F)(F)F)cccc2c1Oc1ncccc1-c1ccnc(N[C@H]2CCCNC2)n1", "note": "[Example 178, (S)-4,4,4-Trifluoro-N-(6-methyl-5-((3-(2-(piperidin-3-ylamino)pyrimidin-4-yl)pyridin-2-yl)oxy)naphthalen-1-yl)butanamide]", "IC50": 0.125}, {"smiles": "Cc1ccc2c(NC(=O)Cc3ccccc3)cccc2c1Oc1ncccc1-c1ccnc(N[C@H]2CCCNC2)n1", "note": "[Example 184, N-[6-Methyl-5-[[3-[2-[[(3S)-3-piperidyl]amino]pyrimidin-4-yl]-2-pyridyl]oxy]-1-naphthyl]-2-phenyl-acetamide]", "IC50": 0.1}]}, {"system": "XBP1s-luc 293 LUC", "assay": "cellular PD assay, XBP1s-LUC reporter (Example 903)", "assay_type": "cell-based", "conditions": "Table 2; read-out: XBP1s-luc 293 LUC (IC50)", "in_short": "as §1", "units": {"IC50": "µM"}, "values": [{"smiles": "COCCCNc1cccc2c(Oc3ncccc3-c3ccnc(N[C@H]4CCCNC4)n3)c(C)ccc12", "note": "[Example 430, 4-[2-[[5-(3-Methoxypropylamino)-2-methyl-1-naphthyl]oxy]-3-pyridyl]-N-[(3S)-3-piperidyl]pyrimidin-2-amine hydrochloride]", "IC50": 0.275}, {"smiles": "CCC(F)(F)CS(=O)(=O)Nc1c(F)ccc2c(Oc3ncccc3-c3ccnc(N[C@H]4CCCNC4)n3)c(C)ccc12", "note": "[Example 456, (S)-2,2-Difluoro-N-(2-fluoro-6-methyl-5-((3-(2-(piperidin-3-ylamino)pyrimidin-4-yl)pyridin-2-yl)oxy)naphthalen-1-yl)butane-1-sulfonamide hydrochloride]", "IC50": 0.011}, {"smiles": "Cc1ccc2c(NS(=O)(=O)Cc3ccc(C(F)F)cc3)c(F)ccc2c1Oc1ncccc1-c1ccnc(N[C@H]2CCCNC2)n1", "note": "[Example 438, (S)-1-(4-(Difluoromethyl)phenyl)-N-(2-fluoro-6-methyl-5-((3-(2-(piperidin-3-ylamino)pyrimidin-4-yl)pyridin-2-yl)oxy)naphthalen-1-yl)methanesulfonamide hydrochloride]", "IC50": 0.005}, {"smiles": "Cc1cc(CS(=O)(=O)Nc2c(F)ccc3c(Oc4ncccc4-c4ccnc(N[C@H]5CCCNC5)n4)c(C)ccc23)no1", "note": "[Example 412, (S)—N-(2-Fluoro-6-methyl-5-((3-(2-(piperidin-3-ylamino)pyrimidin-4-yl)pyridin-2-yl)oxy)naphthalen-1-yl)-1-(5-methylisoxazol-3-yl)methanesulfonamide hydrochloride]", "IC50": 0.007}, {"smiles": "CCC(F)(F)CS(=O)(=O)Nc1c(F)ccc2c(Oc3ncccc3-c3ccnc(N[C@H]4CNC[C@H](F)C4)n3)c(C)ccc12", "note": "(single isomer, unassigned) [Example 495, hydrochloride]", "IC50": 0.469}, {"smiles": "COc1cccc(CS(=O)(=O)Nc2c(F)ccc3c(Oc4ncccc4-c4ccnc(N[C@H]5CCCNC5)n4)c(C)ccc23)c1", "note": "[Example 429, (S)—N-(2-Fluoro-6-methyl-5-((3-(2-(piperidin-3-ylamino)pyrimidin-4-yl)pyridin-2-yl)oxy)naphthalen-1-yl)-1-(3-methoxyphenyl)methanesulfonamide hydrochloride]", "IC50": 0.005}, {"smiles": "Cc1ccc2c(NC[C@@H](O)C3CC3)cccc2c1Oc1ncccc1-c1ccnc(N[C@H]2CCCNC2)n1", "note": "(single isomer, unassigned) [Example 488, hydrochloride]", "IC50": 0.03}]}]}
